Drawing on ChEMBL document CHEMBL1143505, “Synthesis and pharmacological investigation of novel 1-substituted-4-phenyl-1,2,4-triazolo[4,3-a]quinazolin-5(4H)-ones as a new class of H1-antihistaminic agents” (2005), this text covers Protection and Depression for seven molecules.

The species entered for experiment [1] is Cavia porcellus. The experiment is described as follows: Percentage protection of guinea pigs from histamine induced bronchospasm by compound. Details: concentration or dose not given beside the values.
Experiment [2] is filed under the species Cavia porcellus. The experiment can be described thus: Percentage reduction central nervous system depression in guinea pig by compound.

`CCc1nnc2n(-c3ccccc3)c(=O)c3ccccc3n12` displayed a Protection in the experiment filed under Cavia porcellus [1] of 70%. This molecule displayed a Depression in the experiment filed under Cavia porcellus [2] of 5.3%.

In the experiment listed under Cavia porcellus [1], `CCCc1nnc2n(-c3ccccc3)c(=O)c3ccccc3n12` showed a Protection of 69.2%. The same molecule displayed a Depression in the experiment filed under Cavia porcellus [2] of 7.3%.

As to `O=C(O)COCCN1CCN(C(c2ccccc2)c2ccc(Cl)cc2)CC1` (centres undefined) [CETIRIZINE], in the experiment listed under Cavia porcellus [1], the Protection is reported as 78.9%. This molecule also came in with a Depression in the experiment listed under Cavia porcellus [2] of 8.5%.

In the case of `CN(C)CCC(c1ccc(Cl)cc1)c1ccccn1.O=C(O)/C=C\C(=O)O` (centres undefined) [CHLORPHENIRAMINE MALEATE], in the experiment filed under Cavia porcellus [1], the Protection was found to be 71%. For the same molecule, the Depression in the experiment filed under Cavia porcellus [2] came out at 26%.

In the case of `O=c1c2ccccc2n2c(CCl)nnc2n1-c1ccccc1`, the Protection in the experiment listed under Cavia porcellus [1] stood at 68.7%. The molecule further returned a Depression in the experiment filed under Cavia porcellus [2] of 3.7%.

With `Cc1nnc2n(-c3ccccc3)c(=O)c3ccccc3n12`, in the experiment listed under Cavia porcellus [1], the Protection was found to be 70.7%. This molecule also returned a Depression in the experiment filed under Cavia porcellus [2] of 4.8%.

In turn, `O=c1c2ccccc2n2cnnc2n1-c1ccccc1` came in with a Protection in the experiment listed under Cavia porcellus [1] of 69.9%. The Depression in the experiment filed under Cavia porcellus [2] worked out at 4.2%.
